ChEMBL document CHEMBL4414608, “Secophragmalin-Type Limonoids from Trichilia connaroides: Isolation, Semisynthesis, and Their Cytotoxic Activities” (J Nat Prod, 2019)
The source made the active and inactive calls. The calls are words filed in the database; no cut-off is given here.

What was measured:
[1] = tested on: A549; experiment: Cytotoxicity against human A549 cells assessed as cell growth inhibition measured after 24 hrs by MTT assay; format: functional, cell-based; settings: A549, 24 h
[2] = tested on: HeLa; experiment: Cytotoxicity against human HeLa cells assessed as cell growth inhibition measured after 24 hrs by MTT assay; format: functional, cell-based
[3] = tested on: DU-145; experiment: Cytotoxicity against human DU145 cells assessed as cell growth inhibition measured after 24 hrs by MTT assay; format: functional, cell-based; settings: DU-145, 24 h
[4] = tested on: COLO 205; experiment: Cytotoxicity against human COLO205 cells assessed as cell growth inhibition measured after 24 hrs by MTT assay; format: functional, cell-based; settings: COLO 205, 24 h
[5] = tested on: SK-OV-3; experiment: Cytotoxicity against human SKOV3 cells assessed as cell growth inhibition measured after 24 hrs by MTT assay; format: functional, cell-based; settings: SK-OV-3, 24 h
[6] = tested on: DU-145; experiment: Cell cycle arrest in human DU145 cells assessed as accumulation at G0/G1 phase at 3.6 uM measured after 24 hrs by RNase A/propidium iodide staining based flow cytometry analysis (reference value: 51.75 %); format: functional
[7] = tested on: DU-145; experiment: Induction of apoptosis in human DU145 cells assessed as live cells at 3.6 uM measured after 24 hrs by Annexin-V/FITC and propidium iodide staining based flow cytometry (reference value: 95.62 %); format: functional
[8] = tested on: DU-145; experiment: Induction of apoptosis in human DU145 cells assessed as early apoptotic cells at 3.6 uM measured after 24 hrs by Annexin-V/FITC and propidium iodide staining based flow cytometry (reference value: 0.25 %); format: functional
[9] = tested on: DU-145; experiment: Induction of apoptosis in human DU145 cells assessed as late apoptotic cells at 3.6 uM measured after 24 hrs by Annexin-V/FITC and propidium iodide staining based flow cytometry (reference value: 1.49 %); format: functional
[10] = tested on: DU-145; experiment: Induction of apoptosis in human DU145 cells assessed as necrotic cells at 3.6 uM measured after 24 hrs by Annexin-V/FITC and propidium iodide staining based flow cytometry (reference value: 2.64 %); format: functional
[11] = tested on: DU-145; experiment: Induction of apoptosis in human DU145 cells assessed as live cells at 6 uM measured after 24 hrs by Annexin-V/FITC and propidium iodide staining based flow cytometry (reference value: 95.62 %); format: functional
[12] = tested on: DU-145; experiment: Induction of apoptosis in human DU145 cells assessed as early apoptotic cells at 6 uM measured after 24 hrs by Annexin-V/FITC and propidium iodide staining based flow cytometry (reference value: 0.25 %); format: functional
[13] = tested on: DU-145; experiment: Induction of apoptosis in human DU145 cells assessed as late apoptotic cells at 6 uM measured after 24 hrs by Annexin-V/FITC and propidium iodide staining based flow cytometry (reference value: 1.49 %); format: functional
[14] = tested on: DU-145; experiment: Induction of apoptosis in human DU145 cells assessed as necrotic cells at 6 uM measured after 24 hrs by Annexin-V/FITC and propidium iodide staining based flow cytometry (reference value: 2.64 %); format: functional
[15] = tested on: DU-145; experiment: Induction of apoptosis in human DU145 cells assessed as increase in total apoptotic cells measured after 24 hrs by Annexin-V/FITC and propidium iodide staining based flow cytometry; format: functional, cell-based
[16] = tested on: DU-145; experiment: Cell cycle arrest in human DU145 cells assessed as accumulation at G0/G1 phase at 4.2 uM measured after 24 hrs by RNase A/propidium iodide staining based flow cytometry analysis (reference value: 51.75 %); format: functional
[17] = tested on: DU-145; experiment: Induction of apoptosis in human DU145 cells assessed as live cells at 4.2 uM measured after 24 hrs by Annexin-V/FITC and propidium iodide staining based flow cytometry (reference value: 95.62 %); format: functional
[18] = tested on: DU-145; experiment: Induction of apoptosis in human DU145 cells assessed as early apoptotic cells at 4.2 uM measured after 24 hrs by Annexin-V/FITC and propidium iodide staining based flow cytometry (reference value: 0.25 %); format: functional
[19] = tested on: DU-145; experiment: Induction of apoptosis in human DU145 cells assessed as late apoptotic cells at 4.2 uM measured after 24 hrs by Annexin-V/FITC and propidium iodide staining based flow cytometry (reference value: 1.49 %); format: functional
[20] = tested on: DU-145; experiment: Induction of apoptosis in human DU145 cells assessed as necrotic cells at 4.2 uM measured after 24 hrs by Annexin-V/FITC and propidium iodide staining based flow cytometry (reference value: 2.64 %); format: functional
[21] = tested on: DU-145; experiment: Induction of apoptosis in human DU145 cells assessed as live cells at 7 uM measured after 24 hrs by Annexin-V/FITC and propidium iodide staining based flow cytometry (reference value: 95.62 %); format: functional
[22] = tested on: DU-145; experiment: Induction of apoptosis in human DU145 cells assessed as early apoptotic cells at 7 uM measured after 24 hrs by Annexin-V/FITC and propidium iodide staining based flow cytometry (reference value: 0.25 %); format: functional
[23] = tested on: DU-145; experiment: Induction of apoptosis in human DU145 cells assessed as late apoptotic cells at 7 uM measured after 24 hrs by Annexin-V/FITC and propidium iodide staining based flow cytometry (reference value: 1.49 %); format: functional
[24] = tested on: DU-145; experiment: Induction of apoptosis in human DU145 cells assessed as necrotic cells at 7 uM measured after 24 hrs by Annexin-V/FITC and propidium iodide staining based flow cytometry (reference value: 2.64 %); format: functional
[25] = tested on: DU-145; experiment: Cell cycle arrest in human DU145 cells assessed as accumulation at G2/M phase at 4.8 uM measured after 24 hrs by RNase A/propidium iodide staining based flow cytometry analysis; format: functional
[26] = tested on: DU-145; experiment: Induction of apoptosis in human DU145 cells assessed as live cells at 4.8 uM measured after 24 hrs by Annexin-V/FITC and propidium iodide staining based flow cytometry (reference value: 95.62 %); format: functional
[27] = tested on: DU-145; experiment: Induction of apoptosis in human DU145 cells assessed as early apoptotic cells at 4.8 uM measured after 24 hrs by Annexin-V/FITC and propidium iodide staining based flow cytometry (reference value: 0.25 %); format: functional
[28] = tested on: DU-145; experiment: Induction of apoptosis in human DU145 cells assessed as late apoptotic cells at 4.8 uM measured after 24 hrs by Annexin-V/FITC and propidium iodide staining based flow cytometry (reference value: 1.49 %); format: functional
[29] = tested on: DU-145; experiment: Induction of apoptosis in human DU145 cells assessed as necrotic cells at 4.8 uM measured after 24 hrs by Annexin-V/FITC and propidium iodide staining based flow cytometry (reference value: 2.64 %); format: functional

SMILES: C/C=C(\C)C(=O)O[C@@H]1[C@]2(OC(=O)C(C)C)C=C3C4=CC(=O)O[C@@H](c5ccoc5)[C@]4(C)CC[C@@H]3[C@@]3(C)[C@H](C[C@]1(C)[C@H]3[C@@H](OC(=O)C(C)C)C(=O)OC)O2
- IC50 [1]: > 100 µM
- IC50 [2]: > 100 µM
- IC50 [3]: > 100 µM
- IC50 [4]: > 100 µM
- IC50 [5]: > 100 µM

SMILES: CCOC(=O)[C@H](O)[C@@H]1[C@@]2(C)C[C@@H]3O[C@@](O)(C=C4C5=CC(=O)O[C@@H](c6ccoc6)[C@]5(C)CC[C@@H]4[C@@]31C)[C@H]2O
- IC50 [1]: 16.3 µM
- IC50 [2]: > 100 µM
- IC50 [3]: 3.6 µM
- IC50 [4]: > 100 µM
- IC50 [5]: > 100 µM
- Activity [6]: 47.2%
- Activity [7]: 90.97%
- Activity [8]: 0.84%
- Activity [9]: 5.39%
- Activity [10]: 2.8%
- Activity [11]: 89.27%
- Activity [12]: 0.86%
- Activity [13]: 6.45%
- Activity [14]: 3.42%
- Activity [15]: Dose-dependent effect

SMILES: C/C=C(\C)C(=O)O[C@H]1[C@]2(C)C[C@@H]3O[C@@]1(O)C=C1C4=CC(=O)O[C@@H](c5ccoc5)[C@]4(C)CC[C@@H]1[C@]3(C)[C@@H]2[C@@H](O)C(=O)OC
- IC50 [1]: 8.1 µM
- IC50 [2]: > 100 µM
- IC50 [3]: 7.7 µM
- IC50 [4]: > 100 µM
- IC50 [5]: > 100 µM

SMILES: C/C=C(\C)C(=O)O[C@@H]1C(=O)/C=C2/C3=CC(=O)O[C@@H](c4ccoc4)[C@]3(C)CC[C@@H]2[C@@]2(C)C(=O)C[C@]1(C)[C@@H]2[C@@H](O)C(=O)OC
- IC50 [1]: > 100 µM
- IC50 [2]: > 100 µM
- IC50 [3]: 10.5 µM
- IC50 [4]: > 100 µM
- IC50 [5]: > 100 µM

SMILES: C/C=C(\C)C(=O)O[C@@H]1[C@]2(OC(=O)CC)C=C3C4=CC(=O)O[C@@H](c5ccoc5)[C@]4(C)CC[C@@H]3[C@@]3(C)[C@H](C[C@]1(C)[C@H]3[C@@H](O)C(=O)OC)O2
- IC50 [1]: > 100 µM
- IC50 [2]: > 100 µM
- IC50 [3]: 6.7 µM
- IC50 [4]: > 100 µM
- IC50 [5]: > 100 µM

SMILES: C/C=C(\C)C(=O)O[C@@H]1[C@]2(OC(=O)c3ccco3)C=C3C4=CC(=O)O[C@@H](c5ccoc5)[C@]4(C)CC[C@@H]3[C@@]3(C)[C@H](C[C@]1(C)[C@H]3[C@@H](OC(=O)c1ccco1)C(=O)OC)O2
- IC50 [1]: 7.6 µM
- IC50 [2]: > 100 µM
- IC50 [3]: 17.8 µM
- IC50 [4]: > 100 µM
- IC50 [5]: > 100 µM

SMILES: C/C=C(\C)C(=O)O[C@@H]1[C@]2(OC(=O)C3CC3)C=C3C4=CC(=O)O[C@@H](c5ccoc5)[C@]4(C)CC[C@@H]3[C@@]3(C)[C@H](C[C@]1(C)[C@H]3[C@@H](OC(=O)C1CC1)C(=O)OC)O2
- IC50 [1]: > 100 µM
- IC50 [2]: > 100 µM
- IC50 [3]: > 100 µM
- IC50 [4]: > 100 µM
- IC50 [5]: > 100 µM

SMILES: C/C=C(\C)C(=O)O[C@H]1[C@]2(C)C[C@@H]3O[C@@]1(O)C=C1C4=CC(=O)O[C@@H](c5ccoc5)[C@]4(C)CC[C@@H]1[C@]3(C)[C@@H]2[C@@H](OC(C)=O)C(=O)OC
- IC50 [1]: > 100 µM
- IC50 [2]: > 100 µM
- IC50 [3]: > 100 µM
- IC50 [4]: > 100 µM
- IC50 [5]: > 100 µM

SMILES: C/C=C(\C)C(=O)O[C@@H]1[C@]2(OC(=O)CC)C=C3C4=CC(=O)O[C@@H](c5ccoc5)[C@]4(C)CC[C@@H]3[C@@]3(C)[C@H](C[C@]1(C)[C@H]3[C@@H](OC(=O)CC)C(=O)OC)O2
- IC50 [1]: > 100 µM
- IC50 [2]: > 100 µM
- IC50 [3]: > 100 µM
- IC50 [4]: > 100 µM
- IC50 [5]: > 100 µM

SMILES: C/C=C(\C)C(=O)O[C@@H]1[C@]2(OC(=O)C3CC3)C=C3C4=CC(=O)O[C@@H](c5ccoc5)[C@]4(C)CC[C@@H]3[C@@]3(C)[C@H](C[C@]1(C)[C@H]3[C@@H](O)C(=O)OC)O2
- IC50 [1]: 11.8 µM
- IC50 [2]: > 100 µM
- IC50 [3]: > 100 µM
- IC50 [4]: > 100 µM
- IC50 [5]: > 100 µM

SMILES: C/C=C(\C)C(=O)O[C@@H]1[C@]2(OC(=O)CCCC)C=C3C4=CC(=O)O[C@@H](c5ccoc5)[C@]4(C)CC[C@@H]3[C@@]3(C)[C@H](C[C@]1(C)[C@H]3[C@@H](OC(=O)CCCC)C(=O)OC)O2
- IC50 [1]: 5.5 µM
- IC50 [2]: > 100 µM
- IC50 [3]: 4.2 µM
- IC50 [4]: > 100 µM
- IC50 [5]: > 100 µM
- Activity [16]: 53.27%
- Activity [17]: 93.3%
- Activity [18]: 0.86%
- Activity [19]: 3.39%
- Activity [20]: 2.45%
- Activity [21]: 89.44%
- Activity [22]: 0.92%
- Activity [23]: 5.73%
- Activity [24]: 3.91%
- Activity [15]: Dose-dependent effect

SMILES: COc1cccc2c1C(=O)c1c(O)c3c(c(O)c1C2=O)C[C@@](O)(C(=O)CO)C[C@@H]3O[C@H]1C[C@H](N)[C@H](O)[C@H](C)O1 [DOXORUBICIN]
- IC50 [1]: 5.3 µM
- IC50 [2]: 7.9 µM
- IC50 [3]: 4.8 µM
- IC50 [4]: 3.8 µM
- IC50 [5]: 3 µM
- Activity [25]: Active
- Activity [26]: 84.42%
- Activity [27]: 2.41%
- Activity [28]: 10.77%
- Activity [29]: 2.4%

SMILES: C/C=C(\C)C(=O)O[C@H]1[C@]2(C)C[C@@H]3O[C@@]1(O)C=C1C4=CC(=O)O[C@@H](c5ccoc5)[C@]4(C)CC[C@@H]1[C@]3(C)[C@@H]2C(=O)C(=O)OC
- IC50 [1]: 44.4 µM
- IC50 [2]: > 100 µM
- IC50 [3]: > 100 µM
- IC50 [4]: > 100 µM
- IC50 [5]: > 100 µM

SMILES: COC(=O)[C@H](O)[C@@H]1[C@@]2(C)C[C@@H]3O[C@@](O)(C=C4C5=CC(=O)O[C@@H](c6ccoc6)[C@]5(C)CC[C@@H]4[C@@]31C)[C@H]2O
- IC50 [1]: 9.6 µM
- IC50 [2]: > 100 µM
- IC50 [3]: > 100 µM
- IC50 [4]: > 100 µM
- IC50 [5]: > 100 µM
